From US20110135756A1, “COMPOSITIONS AND METHODS FOR PROTECTING SENSORY HAIR CELLS” (University of Washington, priority 2009, published 2011)
“Also recorded” adds a separate entry of the source. Counter-ions that a name gives are not always drawn.

Experiments:
[1] = system: bacteria; assay: Antibiotic efficacy of the ototoxic aminoglycoside in presence of protective drug; assay type: cell-based
[2] = system: hair cells of the zebrafish lateral line; assay: Dose response testing: protection of zebrafish lateral line hair cells against toxin-induced hair cell death (DASPEI neuromast scoring); assay type: in vivo, zebrafish (Danio rerio)
Method: Animal care. Wildtype Larval zebrafish (Danio rerio) were produced via group matings of adult fish. […] Beginning at 4 days post-fertilization (dpf), fish were fed live paramecia or rotifers daily. Experiments were performed using 5 or 6 dpf larvae. The University of Washington Animal Care and Use Committee approved of the animal procedures described here.
Dose response testing. Drug screen “hits” were tested to determine minimum concentrations of drug and maximum concentrations of toxin that confer protection against hair cell death. All “hits” were tested against all four hair cell toxins regardless of whether a given “hit” was positive with a specific toxin in the screen. 5 or 6 dpf larvae were transferred to 6-well Corning Netwell baskets and placed in 6-well plates (Fisher Scientific) in EM with approximately 10 fish per basket. This allowed for easy transfer between treatment media. Drug and toxins were made up in 7 ml of EM. Larvae were pretreated for one hour in a dose of protective drug followed by cotreatment in protective drug and hair cell toxin. […] Then larvae were rinsed 4× and anesthetized with MS222. Larvae were transferred to glass depression slides and viewed on a Leica epifluorescent microscope with a DASPEI filter (Chroma Technologies, Brattleboro Vt.). […] To find minimum protective concentrations, doses of protective drug tested were 0, 0.5, 1, 5, 10, 50, 100 uM and toxin dose was held at the concentrations used for screening (see above). For those doses of putative protectants that killed the larvae, further doses were tested to determine if intermediate doses were optimal. For dose response curves finding maximum toxin dose at which protection occurs, dose of protective drug was held at previously determined optimal dose and toxin dose was varied as follows: […]

[3] = system: hair cells of the zebrafish lateral line; assay: Pretreatment experiments (1 hr, 15 min or no pretreatment before 200 uM neomycin); assay type: in vivo, zebrafish (Danio rerio); settings: for Pre-treatment time prior to aminoglycoside exposure giving greater effectiveness: zebrafish, in vivo
Excerpt: Pretreatment experiments. […] Controls were mock treated or treated with neomycin only.

[4] = system: gentamicin entry into hair cells; assay: Gentamicin-conjugated Texas Red (GTTR) uptake imaging; assay type: in vivo, zebrafish (Danio rerio); settings: protective drug at optimal dose; 50 uM GTTR for 3 min
Excerpt: Gentamicin-conjugated Texas Red Imaging. […] Fish were anesthetized with MS222 and transferred to double wholemount slides for imaging using fluorescence microscopy on an automated stage (Marianas imaging system, Intelligent Imaging Innovations) with a Zeiss Axiovert 200M inverted microscope (Carl Zeiss). Each image contained a z-stack encompassing 2-3 neuromasts as determined by viewing under brightfield illumination. Each fish was imaged once and 5 fish were imaged for each treatment group. Control fish were treated with EM only (mock-treated) or with 3 min of 50 uM GTTR only.
GTTR Image analysis. […] Then 2-3 neuromasts per image were traced and converted to a mask field “Mask 1”. […] Then Boolean addition was used to create the neuromast mask (NM) by taking “Mask1” AND thresholded segment and the background mask (BG) by taking “Mask2” AND thresholded segment. Mean intensity, standard deviation of intensity, sum intensity and volume in voxels were calculated for NM and BG. To create an index of intensity, NM/BG was calculated for each fish and values for mock-treated fish were subtracted and multiplied by 100 to obtain “% intensity above background”.

[5] = system: zebrafish hair cells; assay: Quinoline ring derivatives: pretreatment protection against neomycin-induced hair cell death (FIG. 1); assay type: in vivo; settings: 5 dpf zebrafish; 0, 10, 50, 100 or 200 μM pretreatment; 200 μM neomycin
Method: (§1) FIG. 1 is a bar graph depicting results of cinchonine pretreatment, which protects against neomycin-induced hair cell death. Five day post-fertilization zebrafish were pretreated with 0, 10, 50, 100 or 200 μM cinchonine prior to treatment with 200 μM neomycin. […] The negative control represents fish not exposed to neomycin. Data bars are mean hair cell survival from 8 to 10 fish. Error bars represent standard deviation from the mean.
as §1, with “Five” for “FIG. 1 is a bar graph depicting results of cinchonine pretreatment, which protects against neomycin-induced hair cell death. Five”

[6] = system: cultured lung cancer cells; assay: Inhibition of growth of cultured lung cancer cells in presence of protective drug (in vitro); assay type: cell-based; settings: in vitro testing
[7] = system: hearing and vestibular function; settings: human, in vivo; cited from earlier work
[8] = system: hearing (threshold shift); assay type: in vivo, rat; settings: rats; protectant 25 mg/kg intraperitoneally; kanamycin 25 mg/kg per day i.p. for two weeks
Method: Rats were injected with 25 mg/kg per day (intraperitoneal) kanamycin for two weeks, a treatment that induces a hearing loss similar to that observed in humans following aminoglycoside treatment. At higher frequencies, the hearing loss observed in rats treated with kanamycin (without protectant) is a threshold shift of 50 dB and at mid-frequencies a hearing loss observed is 30-40 dB threshold shift.
The PROTO1 was administered intraperitoneally at a dose of 25 mg/kg. The PROTO1 was given as a 3.33 mg/mL solution in 1:1:2:16 (DMSO:Cremophor EL:EtOH:PBS).

[9] = system: sensory hair cells; assay: Zebrafish model of protection of sensory hair cells against ototoxins (PROTO1); settings: in vivo
[10] = system: hair cells of the zebrafish lateral line; assay: Screen of BIOMOL FDA Approved Drug Library for protection against toxin-induced hair cell death (YO-PRO1); assay type: in vivo, zebrafish (Danio rerio); settings: 4 μg/ml library compound, 1 hr preincubation
Method: Drug Library. BIOMOL's FDA Approved Drug Library (Enzo Life Sciences Inc., Plymouth Meeting, Pa., USA (formerly BIOMOL International, L.P.)) was used to screen zebrafish larvae for compounds that protect against toxin-induced hair cell death. The library consists of 640 drugs dissolved at 2 mg/ml in dimethyl sulfoxide (DMSO). The drugs were aliquoted into eight 96-well plates with 80 drugs per plate and stored at 4 C during initial screening and re-testing.
Screening. Larvae were prelabeled with 2 μM YO-PRO1 (Invitrogen, Carlsbad, Calif. USA; Y3603) in embryo medium for 30 min and then rinsed three times. […]
Concentrations and incubation times were chosen based on previously determined dose-response in order to achieve maximal hair cell death at the lowest concentration of toxin (Ou et al. 2007; Owens et al. 2009). […] After incubation in library drug and hair cell toxin, larvae were anesthetized with 0.001% MS222 (3-aminobenzoic acid ethyl ester methanesulfonate; Sigma) and immediately viewed using fluorescence microscopy on an automated stage (Marianas imaging system, Intelligent Imaging Innovations) using a Zeiss Axiovert 200M inverted microscope (Carl Zeiss). Fish were scored on a scale from 0 to 2 with 2 corresponding to mostly healthy hair cells and a 0 corresponding to mostly dead hair cells. […]

Q: Which “Effect on antibiotic efficacy of the ototoxic aminoglycoside” value (shortened to “Effect on antibiotic efficacy”) [1] does the source give for `CC(COc1ccccc1)N(CCCl)Cc1ccccc1` (stereo not drawn) [Phenoxybenzamine HCl] here?
A: without diminishing the antibiotic efficacy

Q: What about the “Protection of sensory hair cells against gentamicin” value (“Protection … against gentamicin” for short) ([2]; zebrafish, in vivo) of the same compound?
A: protect against gentamicin

Q: What about the “Pre-treatment time prior to aminoglycoside exposure giving greater effectiveness” value [3] of the same compound?
A: 15 min

Q: What about the “Uptake (whether gentamicin is able to enter cells in the presence of protective drug)” value (from here on “Uptake”) [4] of the same compound?
A: attenuate

Q: Which “Uptake” value [4] does the source give for `NC(=NCc1ccccc1)NC(=O)c1nc(Cl)c(N)nc1N` [Benzamil] here?
A: attenuate

Q: Which “Effect on antibiotic efficacy” value [1] does the source give for `CCN(CC)CCCC(C)Nc1ccnc2cc(Cl)ccc12` (stereo not drawn) [Chloroquine diphosphate] here?
A: without diminishing the antibiotic efficacy

Q: And the “Protection … against gentamicin” value ([2]; zebrafish, in vivo)?
A: protect against gentamicin

Q: For `CNCCC(Oc1ccc(C(F)(F)F)cc1)c1ccccc1` (stereo not drawn) [Fluoxetine HCl], which “Effect on antibiotic efficacy” value [1] is on record?
A: without diminishing the antibiotic efficacy

Q: What about the “Uptake” value [4] of the same compound?
A: no block

Q: Which results are given for `CSc1ccc2c(c1)C(N1CCN(C)CC1)Cc1ccccc1S2.O=C(O)/C=C\C(=O)O` (stereo not drawn) [Methiothepin maleate]?
A: Effect on antibiotic efficacy of the ototoxic aminoglycoside [1]: without diminishing the antibiotic efficacy; Drug dose (optimal dose that confers protection against toxins) ([2]; 5 or 6 dpf larvae, toxin dose held at screening concentration): 10 µM; Protection of sensory hair cells against gentamicin ([2]; zebrafish, in vivo): protect against gentamicin; Pre-treat (necessary pretreatment time before toxin exposure for effective protection) ([3]; followed by 1 hr cotreatment with 200 uM neomycin): 60 min; Pre-treatment time prior to aminoglycoside exposure giving greater effectiveness [3]: 60 min; Uptake (whether gentamicin is able to enter cells in the presence of protective drug) [4]: no block

Q: For `C=C[C@H]1C[N@@]2CC[C@H]1C[C@@H]2[C@@H](O)c1ccnc2ccccc12` [cinchonine], which “Hair cell survival after neomycin with cinchonine pretreatment” value [5] is on record?
A: increasing hair cell survival

Q: What does the source list for `O=C(c1ccc(OCCN2CCCCC2)cc1)c1c(-c2ccc(O)cc2)sc2cc(O)ccc12` [Raloxifene HCl]?
A: Effect on antibiotic efficacy of the ototoxic aminoglycoside [1]: without diminishing the antibiotic efficacy; Protection of sensory hair cells against gentamicin ([2]; zebrafish, in vivo): protect against gentamicin; Uptake (whether gentamicin is able to enter cells in the presence of protective drug) [4]: block

Q: With `Fc1ccc([C@@H]2CCNC[C@H]2COc2ccc3c(c2)OCO3)cc1` [Paroxetine HCl] as the compound, how does the “Effect on inhibition of growth of cultured lung cancer cells” value [6] read?
A: alters inhibition of growth of some cultured lung cancer cells at some doses and not at others

Q: And the “Effect on antibiotic efficacy” value [1]?
A: without diminishing the antibiotic efficacy

Q: What about the “Protection of sensory hair cells against cisplatin” value ([2]; zebrafish, in vivo) of the same compound?
A: protective against cisplatin

Q: And the “Protection … against gentamicin” value ([2]; zebrafish, in vivo)?
A: protect against gentamicin

Q: What about the “Uptake” value [4] of the same compound?
A: attenuate

Q: Which “Effect on antibiotic efficacy” value [1] does the source give for `O=C1NCN(c2ccccc2)C12CCN(CCCC(c1ccc(F)cc1)c1ccc(F)cc1)CC2` [Fluspirilene] here?
A: without diminishing the antibiotic efficacy

Q: And the “Uptake” value [4]?
A: no block

Q: Which “High frequency hearing loss (>8 kHZ) incidence” value [7] does the source give for `N.N.[Cl][Pt][Cl]` [cisplatin] here?
A: ≤ 90%

Q: Which results are given for `CC/C(=C(\c1ccccc1)c1ccc(OCCN(C)C)cc1)c1ccccc1` [Tamoxifen citrate]?
A: Effect on antibiotic efficacy of the ototoxic aminoglycoside [1]: without diminishing the antibiotic efficacy; Uptake (whether gentamicin is able to enter cells in the presence of protective drug) [4]: no block

Q: Which “Effect on antibiotic efficacy” value [1] does the source give for `CN(C)CCOc1ccc(/C(=C(/CCCl)c2ccccc2)c2ccccc2)cc1` [Toremifene citrate] here?
A: without diminishing the antibiotic efficacy

Q: For `CC(CCc1ccc(O)cc1)NCC(O)c1ccc(O)cc1` (stereo not drawn) [Ractopamine], which “Effect on antibiotic efficacy” value [1] is on record?
A: without diminishing the antibiotic efficacy

Q: And the “Protection … against gentamicin” value ([2]; zebrafish, in vivo)?
A: protect against gentamicin; also recorded: protected

Q: What about the “Protection of sensory hair cells against kanamycin” value ([2]; zebrafish, in vivo) of the same compound?
A: protect against kanamycin; also recorded: protected

Q: And the “Protection of sensory hair cells from neomycin” value ([2]; zebrafish, in vivo)?
A: protected

Q: And the “Uptake” value [4]?
A: block

Q: What does the source list for `CCN1CCc2c(sc(NC(=O)Nc3ccc(Cl)cc3)c2C(N)=O)C1` [PROTO1, 2-({[(4-chlorophenyl)amino]carbonyl}amino)-6-ethyl-4,5,6,7-tetrahydrothieno[2,3-c]pyridine-3-carboxamide]?
A: Protection against kanamycin-induced hearing loss [8]: significant protection against hearing loss; Protection of sensory hair cells against ototoxins in the Zebrafish model [9]: shown to protect

Q: For `CN(C)C(=O)C(CCN1CCC(O)(c2ccc(Cl)cc2)CC1)(c1ccccc1)c1ccccc1` [Loperamide], which “Effect on antibiotic efficacy” value [1] is on record?
A: without diminishing the antibiotic efficacy

Q: What about the “Protection … against gentamicin” value ([2]; zebrafish, in vivo) of the same compound?
A: protect against gentamicin

Q: What about the “Protection of sensory hair cells against kanamycin” value ([2]; zebrafish, in vivo) of the same compound?
A: protect against kanamycin

Q: And the “Protection in library screen against aminoglycosides (neomycin, gentamicin, kanamycin) and/or cisplatin” value [10]?
A: protects against all four toxins

Q: And the “Uptake” value [4]?
A: no block
